Data published in ChEMBL document CHEMBL3885881, “DrugMatrix”.

Organism: Rattus norvegicus
Assay: DrugMatrix - Regimen: Daily Repeat
Type: toxicity, organism-based, Sprague-Dawley
Parameters: regimen Daily Repeat, gender Male, age 6-8 weeks
Details: in vivo, po, route oral GAVAGE, vehicle 100 % WATER; for ABSOLUTE BASOPHIL / ABSOLUTE EOSINOPHIL / ABSOLUTE LYMPHOCYTE / ABSOLUTE MONOCYTE / ABSOLUTE SEGMENTED NEUTROPHIL / BASOPHIL / EOSINOPHIL / ERYTHROCYTE COUNT / HEMATOCRIT / HEMOGLOBIN / LEUKOCYTE COUNT / LYMPHOCYTE / MEAN CORPUSCULAR HEMOGLOBIN / MEAN CORPUSCULAR HEMOGLOBIN CONCENTRATION / MEAN CORPUSCULAR VOLUME / MONOCYTE / NEUTROPHIL / NUCLEATED RED BLOOD CELLS / PLATELET COUNT: tissue Blood; for ALANINE AMINOTRANSFERASE / ALBUMIN / ALKALINE PHOSPHATASE / ASPARTATE AMINOTRANSFERASE / BLOOD UREA NITROGEN / CARBON DIOXIDE / CHLORIDE / CHOLESTEROL / CREATINE PHOSPHOKINASE / CREATININE / GLUCOSE / LACTATE DEHYDROGENASE / LIPASE / PHOSPHORUS / POTASSIUM / SODIUM / TOTAL BILIRUBIN / TOTAL PROTEIN / URIC ACID: tissue Plasma
[1] = 25 mg/kg, 120 h, dose level High, time 5 day
[2] = […], 72 h, dose 6.3 mg/Kg, dose level Low, time 3 day
[3] = […], 120 h, dose 6.3 mg/Kg, dose level Low, time 5 day

O=P1(N(CCCl)CCCl)NCCCO1 (centres undefined) [CYCLOPHOSPHAMIDE ANHYDROUS]
ABSOLUTE BASOPHIL [1]: 0 CELLS/uL | ABSOLUTE EOSINOPHIL [1]: 0 CELLS/uL | ABSOLUTE LYMPHOCYTE [1]: 1111.67 CELLS/uL | ABSOLUTE MONOCYTE [1]: 4.33 CELLS/uL | ABSOLUTE SEGMENTED NEUTROPHIL [1]: 117.33 CELLS/uL | BASOPHIL [1]: 0% | EOSINOPHIL [1]: 0% | ERYTHROCYTE COUNT [1]: 4.84 x10E6/uL | HEMATOCRIT [1]: 29.43% | HEMOGLOBIN [1]: 11.47 G/DL | LEUKOCYTE COUNT [1]: 1.23 x10E3/uL | LYMPHOCYTE [1]: 90.33% | MEAN CORPUSCULAR HEMOGLOBIN [1]: 23.77 pg | MEAN CORPUSCULAR HEMOGLOBIN CONCENTRATION [1]: 39 G/DL | MEAN CORPUSCULAR VOLUME [1]: 60.93 fL | MONOCYTE [1]: 0.33% | NEUTROPHIL [1]: 9.33% | NUCLEATED RED BLOOD CELLS [1]: 0 /100WBC | PLATELET COUNT [1]: 645 x10E3/uL | ALANINE AMINOTRANSFERASE [1]: 44.33 u/L | ALBUMIN [1]: 3.8 G/DL | ALKALINE PHOSPHATASE [1]: 227.67 u/L | ASPARTATE AMINOTRANSFERASE [1]: 67.33 u/L | BLOOD UREA NITROGEN [1]: 15.33 mg/dL | CARBON DIOXIDE [1]: 31 mmol/L | CHLORIDE [1]: 102.33 MEQ/L | CHOLESTEROL [1]: 78.67 mg/dL | CREATINE PHOSPHOKINASE [1]: 231 u/L | CREATININE [1]: 0.16 mg/dL | GLUCOSE [1]: 147.67 mg/dL | LACTATE DEHYDROGENASE [1]: 83.33 u/L | LIPASE [1]: 8.33 u/L | PHOSPHORUS [1]: 9.97 mg/dL | POTASSIUM [1]: 5.36 MEQ/L | SODIUM [1]: 144.37 MEQ/L | TOTAL BILIRUBIN [1]: 0.1 mg/dL | TOTAL PROTEIN [1]: 5.37 G/DL | URIC ACID [1]: 0.33 mg/dL | ABSOLUTE BASOPHIL [2]: 0 CELLS/uL | ABSOLUTE EOSINOPHIL [2]: 0 CELLS/uL | ABSOLUTE LYMPHOCYTE [2]: 7172.67 CELLS/uL | ABSOLUTE MONOCYTE [2]: 29.33 CELLS/uL | ABSOLUTE SEGMENTED NEUTROPHIL [2]: 531.33 CELLS/uL | BASOPHIL [2]: 0% | EOSINOPHIL [2]: 0% | ERYTHROCYTE COUNT [2]: 5.43 x10E6/uL | HEMATOCRIT [2]: 33.63% | HEMOGLOBIN [2]: 13.3 G/DL | LEUKOCYTE COUNT [2]: 7.73 x10E3/uL | LYMPHOCYTE [2]: 92.67% | MEAN CORPUSCULAR HEMOGLOBIN [2]: 24.53 pg | MEAN CORPUSCULAR HEMOGLOBIN CONCENTRATION [2]: 39.53 G/DL | MEAN CORPUSCULAR VOLUME [2]: 62.03 fL | MONOCYTE [2]: 0.33% | NEUTROPHIL [2]: 7% | NUCLEATED RED BLOOD CELLS [2]: 0 /100WBC | PLATELET COUNT [2]: 1008 x10E3/uL | ALANINE AMINOTRANSFERASE [2]: 63.67 u/L | ALBUMIN [2]: 4.1 G/DL | ALKALINE PHOSPHATASE [2]: 374 u/L | ASPARTATE AMINOTRANSFERASE [2]: 82.67 u/L | BLOOD UREA NITROGEN [2]: 14 mg/dL | CARBON DIOXIDE [2]: 34.33 mmol/L | CHLORIDE [2]: 99.5 MEQ/L | CHOLESTEROL [2]: 93.33 mg/dL | CREATINE PHOSPHOKINASE [2]: 214.67 u/L | CREATININE [2]: 0.13 mg/dL | GLUCOSE [2]: 141.67 mg/dL | LACTATE DEHYDROGENASE [2]: 136 u/L | LIPASE [2]: 12.67 u/L | PHOSPHORUS [2]: 11.2 mg/dL | POTASSIUM [2]: 5.83 MEQ/L | SODIUM [2]: 145.15 MEQ/L | TOTAL BILIRUBIN [2]: 0.23 mg/dL | TOTAL PROTEIN [2]: 5.9 G/DL | URIC ACID [2]: 0.6 mg/dL | ABSOLUTE BASOPHIL [3]: 0 CELLS/uL | ABSOLUTE EOSINOPHIL [3]: 11 CELLS/uL | ABSOLUTE LYMPHOCYTE [3]: 3359 CELLS/uL | ABSOLUTE MONOCYTE [3]: 20 CELLS/uL | ABSOLUTE SEGMENTED NEUTROPHIL [3]: 610 CELLS/uL | BASOPHIL [3]: 0% | EOSINOPHIL [3]: 0.33% | ERYTHROCYTE COUNT [3]: 5.53 x10E6/uL | HEMATOCRIT [3]: 34.97% | HEMOGLOBIN [3]: 13.43 G/DL | LEUKOCYTE COUNT [3]: 4 x10E3/uL | LYMPHOCYTE [3]: 84% | MEAN CORPUSCULAR HEMOGLOBIN [3]: 24.37 pg | MEAN CORPUSCULAR HEMOGLOBIN CONCENTRATION [3]: 38.43 G/DL | MEAN CORPUSCULAR VOLUME [3]: 63.33 fL | MONOCYTE [3]: 0.67% | NEUTROPHIL [3]: 15% | NUCLEATED RED BLOOD CELLS [3]: 0 /100WBC | PLATELET COUNT [3]: 1266.67 x10E3/uL | ALANINE AMINOTRANSFERASE [3]: 56.33 u/L | ALBUMIN [3]: 4.03 G/DL | ALKALINE PHOSPHATASE [3]: 346.33 u/L | ASPARTATE AMINOTRANSFERASE [3]: 83.33 u/L | BLOOD UREA NITROGEN [3]: 14 mg/dL | CARBON DIOXIDE [3]: 31.33 mmol/L | CHLORIDE [3]: 99.5 MEQ/L | CHOLESTEROL [3]: 65.67 mg/dL | CREATINE PHOSPHOKINASE [3]: 216.33 u/L | CREATININE [3]: 0.2 mg/dL | GLUCOSE [3]: 137.33 mg/dL | LACTATE DEHYDROGENASE [3]: 136 u/L | LIPASE [3]: 10.33 u/L | PHOSPHORUS [3]: 10.6 mg/dL | POTASSIUM [3]: 5.74 MEQ/L | SODIUM [3]: 145.9 MEQ/L | TOTAL BILIRUBIN [3]: 0.17 mg/dL | TOTAL PROTEIN [3]: 5.9 G/DL | URIC ACID [3]: 0.53 mg/dL
